One experiment concerns the target ALK3 (BMPR1A) (Homo sapiens (Human), UniProt P36894). Briefly: In vitro kinase assay, ALK3. It counts as biochemical. The conditions noted are these: 10 μM ATP; read-out: Inhibition of ALK3 IC50.
The next experiment deals with ALK2 (ACVR1) (Homo sapiens (Human), UniProt Q04771). Briefly: In vitro kinase assay, ALK2. The conditions noted are these: 10 μM ATP; read-out: Inhibition of ALK2 IC50. It counts as biochemical.
For another experiment, the target named is ALK4 (ACVR1B) (Homo sapiens (Human), UniProt P36896). As to the kind of experiment: In vitro kinase assay, ALK4. The class given is biochemical. The conditions noted are these: 10 μM ATP; read-out: Inhibition of ALK4 IC50.
A further experiment concerns the target ALK1 (ACVRL1) (Homo sapiens (Human), UniProt P37023). Briefly: In vitro kinase assay, ALK1. The class given is biochemical. The conditions noted are these: 10 μM ATP; read-out: Inhibition of ALK1 IC50.
The target of another experiment is ALK5 (TGFBR1) (Homo sapiens (Human), UniProt P36897). As to the kind of experiment: In vitro kinase assay, ALK5. The class given is biochemical. The conditions noted are these: 10 μM ATP; read-out: Inhibition of ALK5 IC50.
For the next experiment, the target named is ALK6 (BMPR1B) (Homo sapiens (Human), UniProt O00238). Briefly: In vitro kinase assay, ALK6. It counts as biochemical.
A further experiment has as its system p-SMAD2. Briefly: p-SMAD2 inhibition, Western Blot Analysis in TGFβ-stimulated MDA-MB-231 cells. It counts as cell-based. The conditions noted are these: Homo sapiens, TGFβ 2 ng/mL, triplicate; for inhibition at 0.1 µM: 0.1 μM compound, read-out: Average p-SMAD2 inhibition @ 0.1 μM (% Inh). (In general: Immunoblotting shows a protein as a band on a membrane.)
Where [1] appears, read: 10 μM ATP, read-out: Inhibition of ALK6 IC50.

Read-outs that look alike come from different tables or passages of the source. A value given as a limit tells only on which side of the number the result lay.

A word on the IC50: it is the concentration at which inhibition is half-maximal. In general, inhibition refers to the drop in the measured response relative to a control, in per cent.

ALK6 (BMPR1B), sequence (O00238 14-502): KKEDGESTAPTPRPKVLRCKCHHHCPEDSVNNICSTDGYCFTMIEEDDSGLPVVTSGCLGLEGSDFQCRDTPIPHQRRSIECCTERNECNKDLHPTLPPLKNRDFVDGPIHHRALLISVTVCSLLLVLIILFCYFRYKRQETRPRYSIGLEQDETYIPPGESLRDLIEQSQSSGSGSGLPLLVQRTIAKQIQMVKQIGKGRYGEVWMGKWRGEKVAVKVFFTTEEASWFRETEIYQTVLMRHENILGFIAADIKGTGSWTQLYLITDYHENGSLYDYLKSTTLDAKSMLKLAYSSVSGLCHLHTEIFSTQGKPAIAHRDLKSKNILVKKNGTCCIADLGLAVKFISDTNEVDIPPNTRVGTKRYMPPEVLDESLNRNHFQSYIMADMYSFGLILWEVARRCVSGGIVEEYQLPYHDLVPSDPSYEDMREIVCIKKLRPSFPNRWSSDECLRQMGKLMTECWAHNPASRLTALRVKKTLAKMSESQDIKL
ALK3 (BMPR1A), sequence (P36894 24-532): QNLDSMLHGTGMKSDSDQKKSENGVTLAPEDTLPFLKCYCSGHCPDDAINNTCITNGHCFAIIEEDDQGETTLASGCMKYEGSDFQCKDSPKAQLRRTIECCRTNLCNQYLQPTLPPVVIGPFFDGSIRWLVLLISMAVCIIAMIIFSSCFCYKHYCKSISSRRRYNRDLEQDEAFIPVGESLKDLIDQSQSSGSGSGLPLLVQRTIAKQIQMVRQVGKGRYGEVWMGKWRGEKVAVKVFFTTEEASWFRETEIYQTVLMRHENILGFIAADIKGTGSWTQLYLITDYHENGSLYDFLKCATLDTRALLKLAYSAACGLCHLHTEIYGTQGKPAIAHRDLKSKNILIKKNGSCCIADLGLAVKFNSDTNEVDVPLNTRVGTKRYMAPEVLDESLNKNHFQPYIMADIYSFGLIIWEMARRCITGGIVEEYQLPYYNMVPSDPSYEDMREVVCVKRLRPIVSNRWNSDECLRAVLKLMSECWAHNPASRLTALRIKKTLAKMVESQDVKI
ALK2 (ACVR1), sequence (Q04771 21-509): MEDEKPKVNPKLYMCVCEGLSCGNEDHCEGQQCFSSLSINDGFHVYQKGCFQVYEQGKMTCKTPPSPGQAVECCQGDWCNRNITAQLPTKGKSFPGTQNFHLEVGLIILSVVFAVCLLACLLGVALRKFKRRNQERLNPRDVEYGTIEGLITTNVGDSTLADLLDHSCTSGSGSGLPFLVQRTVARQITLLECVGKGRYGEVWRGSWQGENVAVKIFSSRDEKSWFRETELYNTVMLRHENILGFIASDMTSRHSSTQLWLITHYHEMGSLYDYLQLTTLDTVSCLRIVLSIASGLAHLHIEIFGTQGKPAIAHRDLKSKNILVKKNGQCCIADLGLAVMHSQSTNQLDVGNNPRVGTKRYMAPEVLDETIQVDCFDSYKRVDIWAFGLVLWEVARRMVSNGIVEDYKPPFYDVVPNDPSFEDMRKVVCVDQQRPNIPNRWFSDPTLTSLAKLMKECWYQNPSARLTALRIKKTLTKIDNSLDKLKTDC
ALK1 (ACVRL1), sequence (P37023 22-503): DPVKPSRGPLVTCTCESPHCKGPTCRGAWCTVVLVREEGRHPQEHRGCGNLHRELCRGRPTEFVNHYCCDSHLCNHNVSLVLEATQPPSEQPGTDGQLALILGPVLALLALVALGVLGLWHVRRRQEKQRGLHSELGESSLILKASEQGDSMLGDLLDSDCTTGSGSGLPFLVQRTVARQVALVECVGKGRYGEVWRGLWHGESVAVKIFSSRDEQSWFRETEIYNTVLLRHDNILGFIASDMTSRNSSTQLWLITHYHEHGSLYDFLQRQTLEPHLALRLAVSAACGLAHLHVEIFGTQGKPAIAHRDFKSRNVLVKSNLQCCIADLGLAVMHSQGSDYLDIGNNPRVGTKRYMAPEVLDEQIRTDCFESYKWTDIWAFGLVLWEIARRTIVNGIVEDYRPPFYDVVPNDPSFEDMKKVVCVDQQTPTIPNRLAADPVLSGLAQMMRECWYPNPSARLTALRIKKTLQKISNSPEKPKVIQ
ALK4 (ACVR1B), sequence (P36896 24-505): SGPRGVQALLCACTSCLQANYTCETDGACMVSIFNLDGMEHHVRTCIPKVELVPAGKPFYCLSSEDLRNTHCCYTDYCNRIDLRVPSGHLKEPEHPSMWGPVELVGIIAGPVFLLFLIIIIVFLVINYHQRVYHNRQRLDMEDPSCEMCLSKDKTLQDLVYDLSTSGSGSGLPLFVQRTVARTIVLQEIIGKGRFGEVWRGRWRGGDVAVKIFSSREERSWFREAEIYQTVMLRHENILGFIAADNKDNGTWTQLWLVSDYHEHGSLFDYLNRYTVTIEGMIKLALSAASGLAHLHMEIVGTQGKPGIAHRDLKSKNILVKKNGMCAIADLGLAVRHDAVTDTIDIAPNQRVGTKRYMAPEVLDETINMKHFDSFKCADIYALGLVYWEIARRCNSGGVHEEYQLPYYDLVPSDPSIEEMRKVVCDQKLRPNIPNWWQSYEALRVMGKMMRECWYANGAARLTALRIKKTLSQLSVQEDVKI
ALK5 (TGFBR1), sequence (P36897 34-503): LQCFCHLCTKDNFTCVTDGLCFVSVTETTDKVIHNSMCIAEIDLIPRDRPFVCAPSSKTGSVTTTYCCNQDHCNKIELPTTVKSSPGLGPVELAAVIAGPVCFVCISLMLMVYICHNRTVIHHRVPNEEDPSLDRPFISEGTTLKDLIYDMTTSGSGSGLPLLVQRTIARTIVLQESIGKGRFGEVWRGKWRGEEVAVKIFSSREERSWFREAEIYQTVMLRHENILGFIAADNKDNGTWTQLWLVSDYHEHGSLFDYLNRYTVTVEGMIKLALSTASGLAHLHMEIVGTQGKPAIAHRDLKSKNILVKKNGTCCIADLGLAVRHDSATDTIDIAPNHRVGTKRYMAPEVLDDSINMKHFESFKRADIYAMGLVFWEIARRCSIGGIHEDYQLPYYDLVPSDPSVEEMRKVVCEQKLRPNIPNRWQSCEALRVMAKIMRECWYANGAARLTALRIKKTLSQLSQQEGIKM

`CC(O)CNC(=O)c1c[nH]nc1Nc1cc(-c2cc(Cl)ccc2F)ncc1C(C)C` (single isomer, unassigned) [21a, 3-[[2-(5-chloro-2-fluoro-phenyl)-5-isopropyl-4-pyridyl]amino]-N-(2-hydroxypropyl)-1H-pyrazole-4-carboxamide]: the IC50 at ALK3 (BMPR1A) is > 1 mM; at ALK2 (ACVR1) it was > 1 mM; at ALK4 (ACVR1B) it was > 1 mM; on ALK1 (ACVRL1), > 100 µM; at ALK5 (TGFBR1), > 100 µM; at ALK6 (BMPR1B) it was > 1 mM.
As to `C=Cc1cnc(-c2cc(Cl)ccc2F)cc1Nc1ccncc1C(=O)NC[C@H](C)O` [10a, (S)-4-(2-(5-chloro-2-fluorophenyl)-5-vinylpyridin-4-ylamino)-N-(2-hydroxypropyl)nicotinamide], in the experiment with p-SMAD2, the inhibition at 0.1 µM was determined as 0%.
Regarding `CC(C)c1cnc(-c2cc(Cl)ccc2F)cc1Nc1ccncc1C(=O)N1CCC(O)CC1` [compound 9, [4-[[2-(5-chloro-2-fluoro-phenyl)-5-isopropyl-4-pyridyl]amino]-3-pyridyl]-(4-hydroxy-1-piperidyl)methanone], the inhibition at 0.1 µM in the experiment on p-SMAD2 stood at 6%. Besides, the inhibition at 0.5 µM in the experiment on p-SMAD2 (0.5 μM compound, read-out: Average p-SMAD2 inhibition @ 0.5 μM (% Inh)) worked out at 12.7%.
On to `CC(C)c1cnc(-c2ccccc2)cc1Nc1ccncc1C(=O)NC[C@H](C)O` [compound 28, N-(2-hydroxypropyl)-4-[(5-isopropyl-2-phenyl-4-pyridyl)amino]pyridine-3-carboxamide], for which the IC50 is > 1 mM on ALK3 (BMPR1A), > 1 mM on ALK2 (ACVR1), > 100 µM at ALK1 (ACVRL1) and > 1 mM on ALK6 (BMPR1B) (setting [1]).
As for `C[C@H](O)CNC(=O)c1cnccc1Nc1cc(-c2cc(Cl)ccc2F)ncc1C1CC1` [compound 31, 4-{[2-(5-chloro-2-fluorophenyl)-5-cyclopropylpyridin-4-yl]amino}-N-[(2S)-2-hydroxypropyl]pyridine-3-carboxamide], the IC50 was > 0.01 mM at ALK3 (BMPR1A), > 0.01 mM at ALK2 (ACVR1), > 10 µM on ALK1 (ACVRL1) and > 0.01 mM at ALK6 (BMPR1B) (setting [1]).

The record behind these values is patent US10030004B2, “Compounds and methods of use” (Medivation Technologies LLC, priority 2014, dated 2018).
